“Also recorded” adds a separate entry of the source.
Assays:
Assay type in all cases: cell-based
HeLa cells [1] = assay: Translation activity of Luc2 mRNA transcriptionally synthesized using a cap analog, HeLa cells (FIG. 37); settings: lipofection, after 24 hours, versus Tri_1 (CleanCap Reagent AG structure)
Experimental: (§1) An RNA was transcriptionally synthesized with T7 RNA polymerase using a double-stranded DNA as a template. The double-stranded DNA of the template was obtained by amplifying pSP73-a-luc2 (described at the end of the experimental section) encoding the Luc2 gene by a PCR reaction using KOD-Plus-Neo (TOYOBO), Fw primer (cgcgttggccgattcatt: SEQ ID NO: 3), Rev primer ([…]: SEQ ID NO: 4) (1.0 ng/μL DNA vector, 1×KOD-Plus-Neo buffer, 0.2 mM dNTPs, 0.3 μM primers, 1.5 mM MgSO4, 0.02 units/μL polymerase). […]
(§2) Deprotection by photoirradiation: The RNA solution was added to a transparent 96-multiwell plate, and irradiated with 365 nm light at a quantity of light of 4 mW/cm^2 for 15 minutes using a MAX-305 light source device (Asahi Spectra Co., Ltd.). […]
FIG. 37 is a diagram showing the result of evaluation of translation activity in a HeLa cell of RNAs transcriptionally synthesized using a cap analog. […] After 24 hours, the cells were lysed and the luminescence of firefly luciferase was measured. […]
HeLa cells (RIKEN Cell Bank) were cultivated (37° C., 5% CO2) in Dulbecco's modified Eagle's medium (DMEM; WAKO) with addition of 10% fetal bovine serum (FBS; Invitrogen). […] Luminescence was measured using ONE-Glo (registered trademark) luciferase assay (registered trademark) (Promega).

JAWS II cells = assay: Translation activity of Luc2 mRNA transcriptionally synthesized using a cap analog, JAWS II cells (FIG. 38); settings: lipofection, after 24 hours, versus Tri_1 (CleanCap Reagent AG structure)
Experimental: as §1, §2
FIG. 38 is a diagram showing the result of evaluation of translation activity in JAWS II cells of an RNA transcriptionally synthesized using a cap analog. […] After 24 hours, the cells were lysed and the luminescence of firefly luciferase was measured. […]
Evaluation of intracellular translation activity (JAWS II cells): JAWS II cells (ATCC) were cultivated (37° C., 5% CO2) in Minimum Essential Medium α(MEM α; Thermo Fisher SCIENTIFIC) with addition of 10% fetal bovine serum (FBS; Invitrogen) and GM-CSF (5 ng/mL). […] Luminescence was measured using ONE-Glo (registered trademark) luciferase assay (registered trademark) (Promega).

[2] = test system: NF-κB reporter (Luc)-HEK 293 cells; assay: Evaluation of intracellular immune response, NF-κB reporter luciferase assay (FIG. 43, 45); settings: FIG. 45; HEK 293 NF-kB cells, 50 ng and 100 ng mRNA, 24 hours
Experimental: NF-κB reporter (Luc)-HEK 293 cells (BPS Bioscience Inc.) were cultivated (37° C., 5% CO2) in a Dulbecco's modified Eagle's medium (DMEM; WAKO) with addition of 10% fetal bovine serum (FBS; Invitrogen), 100 μg/ml of Hygromycin B. The day before transfection, NF-κB reporter (Luc)-HEK 293 cells were seeded in a 48-well plate (7.5×10^4 cells/well). The next day, the medium was removed and replaced with 225 μL/well Opti-MEM (registered trademark) (Thermo Fisher SCIENTIFIC). 0.375 μL Lipofectamine (registered trademark) Messenger MAX (registered trademark) and 12.5 ng mRNA (DiPure) were diluted in 25 μL Opti-MEM (registered trademark) and introduced into cells. After incubation at 37° C. for 5 hours, 50 μL/well 1× Cell Lysis Buffer (Promega) was added to lyse the cells. Luminescence was measured using ONE-Glo (registered trademark) luciferase assay (registered trademark) (Promega). The protein amount was quantified using Pierce (registered trademark) BCA Protein Assay Kit (Thermo Fisher SCIENTIFIC), and the luminescence value was corrected by the number of cells.
NF-κB reporter (Luc)-HEK 293 cells (BPS Bioscience Inc.) were cultivated (37° C., 5% CO2) in a Dulbecco's modified Eagle's medium (DMEM; WAKO) with addition of 10% fetal bovine serum (FBS; Invitrogen), 100 μg/ml of Hygromycin B. The day before transfection, NF-κB reporter (Luc)-HEK 293 cells were seeded in a 48-well plate (1.0×10^5 cells/well). The next day, the medium was removed and replaced with 240 μL/well Opti-MEM (registered trademark) (Thermo Fisher SCIENTIFIC). 0.15 μL Lipofectamine (registered trademark) Messenger MAX (registered trademark) and 100 ng mRNA were diluted in 10 μL Opti-MEM (registered trademark) and introduced into cells. After incubation at 37° C. for 24 hours, 50 μL/well 1× Cell Lysis Buffer (Promega) was added to lyse the cells. Luminescence was measured using ONE-Glo (registered trademark) luciferase assay (registered trademark) (Promega). The protein amount was quantified using Pierce (registered trademark) BCA Protein Assay Kit (Thermo Fisher SCIENTIFIC), and the luminescence value was corrected by the number of cells.

HeLa cells [3] = assay: Translation activity of NanoLuc luciferase mRNA (capped with cap analog, reverse-phase HPLC purified) lipofected into HeLa cells (FIG. 30, 31)
Experimental: In (A) of the figure, a cap analog compound was added, a NanoLuc luciferase mRNA (650-base-long) was transcriptionally synthesized using T7 RNA polymerase, and the transcription reaction was analyzed by denaturing polyacrylamide gel (5%, containing 7.5 M urea as a denaturant) electrophoresis. The composition of the transcription reaction liquid and the reaction conditions are shown below.
15 ng/μL dsDNA transcription template (PCR product of 676-bp containing T7 promoter sequence 5′TAATACGACTCACTATAG3′-(SEQ ID NO: 1) and containing a NanoLuc luciferase gene coding region derived from a pNL1.1 TK vector (Promega)), 2 mM ATP, 2 mM UTP, 2 mM CTP, 2 mM GTP or [0.5 mM GTP+2 mM Cap Analog], 40 mM Tris-HCl (pH 8.0), 8 mM MgCl2, 2 mM spermidine, 5 mM DTT, 10 units/μL T7 RNA polymerase (Takara Bio Inc.).
FIG. 30 is a diagram showing the evaluation of the translation activity of a NanoLuc luciferase mRNA after reverse-phase HPLC isolation and purification. The activity was indicated with the expression level of the mRNA prepared without addition of the cap analog being 1.
FIG. 31 is a diagram showing the evaluation of the translation activity of a NanoLuc luciferase mRNA after reverse-phase HPLC isolation and purification. The activity was indicated with the expression level of the mRNA prepared without addition of the cap analog being 1. […]

Compound: COC1[C@@H](OP(=O)([O-])OC[C@H]2O[C@@H](n3cnc4c(=O)[nH]c(N)nc43)C(O)[C@H]2O)[C@@H](COP(=O)([O-])OP(=O)([O-])OP(=O)([O-])OC[C@H]2O[C@@H](n3c[n+](C)c4c([O-])nc(N)nc43)C(OCOC(c3ccccc3[N+](=O)[O-])C(C)(C)C)[C@H]2O)O[C@H]1n1cnc2c(N)ncnc21.[Na+].[Na+].[Na+].[Na+] (some centres unmarked) [TriPure_1, Nb-^m7GpppA(2′OCH3)pG]
- translation activity relative to Tri_1 (firefly luciferase luminescence) (HeLa cells [1]): about 2 times
- translation activity relative to Tri_1 (firefly luciferase luminescence) (JAWS II cells): about 24 times
- intracellular immune response (NF-κB reporter luminescence) [2]: lower immune response than conventional mRNAs synthesized using ARCA

Compound: P1-(N^2-tBu-nitrobenzyloxycarbonyl-N^7-methylguanosin-5′-yl) P3-guanosin-5′-yl triphosphate [Cap Analog_1]
- translation activity (amount of expressed NanoLuc luciferase; expression level of mRNA prepared without cap analog being 1) (HeLa cells [3]; FIG. 30, mRNA 20 ng/well, cultivated 7 hours, before and after photoirradiation/deprotection): does not show high translation activity unless it is irradiated with light and deprotected; also recorded: can completely inhibit translation activity in the protected state

Compound: C[n+]1cn([C@@H]2O[C@H](COP(=O)(O)OP(=O)([O-])OP(=O)(O)OC[C@H]3O[C@@H](n4cnc5c(=O)[nH]c(N)nc54)C(O)[C@H]3O)[C@H](O)C2OCOC(c2ccccc2[N+](=O)[O-])C(C)(C)C)c2nc(N)nc(O)c21 (mixture of isomers) [Cap Analog_2, P1-{N^7-Methyl-2′-O-[2,2-dimethyl-(R/S)-1-(2-nitrophenyl)propyloxy]methylguanosin-5′-yl} P3-guanosin-5′-yl triphosphate]
- translation activity compared with mRNA prepared using ARCA cap analog (HeLa cells [3]; FIG. 31, mRNA 5 ng/well, cultivated 23 hours): higher translation activity compared to the RNA capped with ARCA
